Assay results taken from US6737383B1, “Herbicidal oxadiazolidines” (priority 1999, dated 2004).

Assays:
morningglory = experiment: Test B pre/postemergence morningglory; format: in vivo, Ipomoea hederacea
Procedure, shortened: (§1)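 Response is a visual 0-to-10 score relative to untreated plants, where 0 means no effect and 10 means complete control, taken twelve to sixteen days after application. Treatments went onto soil at planting and onto foliage of 1- to 4-leaf plants, using a surfactant-containing non-phytotoxic solvent.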

rape = experiment: Test B pre/postemergence rape; format: in vivo, Brassica napus
Procedure, shortened: as §1

soybean = experiment: Test B pre/postemergence soybean; format: in vivo, Glycine max
Procedure, shortened: as §1

wild oat = experiment: Test B pre/postemergence wild oat; format: in vivo, Avena fatua
Procedure, shortened: as §1

bamyardgrass = experiment: Test B flood test barnyardgrass; format: in vivo, Echinochloa crus-galli
Procedure, shortened: (§2)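 Each value is a visual injury score relative to controls, with 10 meaning complete control and 0 no effect. Evaluation took place twelve to sixteen days after the 2-leaf-stage plants were treated and kept in the greenhouse.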

corn = experiment: Test B pre/postemergence corn; format: in vivo, Zea mays
Procedure, shortened: as §1

purple nutsedge = experiment: Test B pre/postemergence purple nutsedge; format: in vivo, Cyperus rotundus
Procedure, shortened: as §1

velvetleaf = experiment: Test B pre/postemergence velvetleaf; format: in vivo, Abutilon theophrasti
Procedure, shortened: as §1

blackgrass = experiment: Test B pre/postemergence blackgrass; format: in vivo, Alopecurus myosuroides
Procedure, shortened: as §1

surinam grass = experiment: Test B pre/postemergence surinam grass; format: in vivo, Brachiaria decumbens
Procedure, shortened: as §1

cocklebur = experiment: Test B pre/postemergence cocklebur; format: in vivo, Xanthium strumarium
Procedure, shortened: as §1

rice = experiment: Test B flood test rice; format: in vivo, Oryza sativa
Procedure, shortened: as §2

sugar beet = experiment: Test B pre/postemergence sugar beet; format: in vivo, Beta vulgaris
Procedure, shortened: as §1

smallflower flatsedge = experiment: Test B flood test smallflower flatsedge; format: in vivo, Cyperus difformis
Procedure, shortened: as §2

pigweed = experiment: Test B pre/postemergence pigweed; format: in vivo, Amaranthus retroflexus
Procedure, shortened: as §1

[1] = Postemergence, Rate 250 g/ha, scale 0 to 10
[2] = Postemergence, Rate 500 g/ha, scale of 0 to 10 where 0 is no effect and 10 is complete control
[3] = Preemergence, Rate 62 g/ha, scale of 0 to 10 where 0 is no effect and 10 is complete control
[4] = Preemergence, Rate 125 g/ha, scale of 0 to 10 where 0 is no effect and 10 is complete control
[5] = Preemergence, Rate 250 g/ha, scale 0 to 10, 0 is no effect, 10 is complete control
[6] = Preemergence, Rate 500 g/ha, scale 0 to 10, 0 is no effect, 10 is complete control
[7] = Rate 62 g/ha, Postemergence, scale 0 to 10, 0 no effect, 10 complete control
[8] = Rate 125 g/ha, Postemergence, scale 0 to 10, 0 is no effect, 10 is complete control
[9] = Rate 62 g/ha, flood test species, Pre-emergence, visual evaluation after twelve to sixteen days
[10] = Rate 125 g/ha, under heading Pre-emergence, flood test species, visual evaluation after twelve to sixteen days
[11] = Rate 250 g/ha, Pre-emergence (flood test species), scale 0 to 10, 0 is no effect, 10 is complete control
[12] = Rate 500 g/ha, Pre-emergence, flood test species, scale 0 to 10 (0 no effect, 10 complete control)

COC(C)n1c(=O)on(C(=O)N(c2ccc(F)cc2)C(C)C)c1=O (stereo not drawn) [Compound 439]
0: Morningglory plant response rating (morningglory; [1]) | Morningglory plant response rating (morningglory; [2]) | Plant response rating, Morningglory (morningglory; [3]) | Plant response rating, Morningglory (morningglory; [4]) | Morningglory plant response rating (morningglory; [5]) | Morningglory plant response rating (morningglory; [6]) | Morningglory plant response rating (morningglory; [7]) | Morningglory plant response rating (morningglory; [8]) | Rape plant response rating (rape; [1]) | Rape plant response rating (rape; [2]) | Plant response rating, Rape (rape; [3]) | Plant response rating, Rape (rape; [4]) | Rape plant response rating (rape; [5]) | Rape plant response rating (rape; [6]) | Rape plant response rating (rape; [7]) | Rape plant response rating (rape; [8]) | Soybean plant response rating (soybean; [1]) | Soybean plant response rating (soybean; [2]) | Plant response rating, Soybean (soybean; [3]) | Plant response rating, Soybean (soybean; [4]) | Soybean plant response rating (soybean; [5]) | Soybean plant response rating (soybean; [6]) | Soybean plant response rating (soybean; [7]) | Soybean plant response rating (soybean; [8]) | Wild oats plant response rating (wild oat; [1]) | Wild oats plant response rating (wild oat; [2]) | Plant response rating, Wild oats (wild oat; [3]) | Plant response rating, Wild oats (wild oat; [4]) | Wild oats plant response rating (wild oat; [5]) | Wild oats plant response rating (wild oat; [6]) | Wild oats plant response rating (wild oat; [7]) | Wild oats plant response rating (wild oat; [8]) | Plant response rating, Barnyardgrass (0 to 10 scale, 0 is no effect, 10 is complete control) (bamyardgrass; [9]) | Barnyardgrass plant response rating (0 to 10 scale, 0 is no effect, 10 is complete control) (bamyardgrass; [10]) | Barnyardgrass plant response rating (bamyardgrass; [11]) | Barnyardgrass plant response rating (bamyardgrass; [12]) | Corn plant response rating (corn; [1]) | Corn plant response rating (corn; [2]) | Plant response rating, Corn (corn; [3]) | Plant response rating, Corn (corn; [4]) | Corn plant response rating (corn; [5]) | Corn plant response rating (corn; [6]) | Corn plant response rating (corn; [7]) | Corn plant response rating (corn; [8]) | Nutsedge plant response rating (purple nutsedge; [1]) | Nutsedge plant response rating (purple nutsedge; [2]) | Plant response rating, Nutsedge (purple nutsedge; [3]) | Plant response rating, Nutsedge (purple nutsedge; [4]) | Nutsedge plant response rating (purple nutsedge; [5]) | Nutsedge plant response rating (purple nutsedge; [6]) | Nutsedge plant response rating (purple nutsedge; [7]) | Nutsedge plant response rating (purple nutsedge; [8]) | Velvetleaf plant response rating (velvetleaf; [1]) | Velvetleaf plant response rating (velvetleaf; [2]) | Plant response rating, Velvetleaf (velvetleaf; [3]) | Plant response rating, Velvetleaf (velvetleaf; [4]) | Velvetleaf plant response rating (velvetleaf; [5]) | Velvetleaf plant response rating (velvetleaf; [6]) | Velvetleaf plant response rating (velvetleaf; [7]) | Velvetleaf plant response rating (velvetleaf; [8]) | Blackgrass plant response rating (blackgrass; [1]) | Blackgrass plant response rating (blackgrass; [2]) | Plant response rating, Blackgrass (blackgrass; [3]) | Plant response rating, Blackgrass (blackgrass; [4]) | Blackgrass plant response rating (blackgrass; [5]) | Blackgrass plant response rating (blackgrass; [6]) | Blackgrass plant response rating (blackgrass; [7]) | Blackgrass plant response rating (blackgrass; [8]) | B. signalgrass plant response rating (surinam grass; Postemergence, Rate 250 g/ha, scale 0 to 10, 0 no effect, 10 complete control) | B. signalgrass plant response rating (surinam grass; [2]) | Plant response rating, B. signalgrass (surinam grass; [3]) | Plant response rating, B. signalgrass (surinam grass; [4]) | B. signalgrass plant response rating (surinam grass; [5]) | B. signalgrass plant response rating (surinam grass; [6]) | B. signalgrass plant response rating (surinam grass; [7]) | B. signalgrass plant response rating (surinam grass; [8]) | Cocklebur plant response rating (cocklebur; [1]) | Cocklebur plant response rating (cocklebur; [2]) | Plant response rating, Cocklebur (cocklebur; [3]) | Plant response rating, Cocklebur (cocklebur; [4]) | Cocklebur plant response rating (cocklebur; [5]) | Cocklebur plant response rating (cocklebur; [6]) | Cocklebur plant response rating (cocklebur; [7]) | Cocklebur plant response rating (cocklebur; [8]) | Plant response rating, Rice (0 to 10 scale, 0 is no effect, 10 is complete control) (rice; [9]) | Rice plant response rating (0 to 10 scale, 0 is no effect, 10 is complete control) (rice; [10]) | Rice plant response rating (rice; [11]) | Rice plant response rating (rice; [12]) | Sugarbeets plant response rating (sugar beet; [1]) | Sugarbeets plant response rating (sugar beet; [2]) | Plant response rating, Sugarbeets (sugar beet; [3]) | Plant response rating, Sugarbeets (sugar beet; [4]) | Sugarbeets plant response rating (sugar beet; [5]) | Sugarbeets plant response rating (sugar beet; [6]) | Sugarbeets plant response rating (sugar beet; [7]) | Sugarbeets plant response rating (sugar beet; [8]) | Plant response rating, S. Flatsedge (0 to 10 scale, 0 is no effect, 10 is complete control) (smallflower flatsedge; [9]) | S. Flatsedge plant response rating (0 to 10 scale, 0 is no effect, 10 is complete control) (smallflower flatsedge; [10]) | S. Flatsedge plant response rating (smallflower flatsedge; [11]) | S. Flatsedge plant response rating (smallflower flatsedge; [12]) | Redroot pigweed plant response rating (pigweed; [1]) | Redroot pigweed plant response rating (pigweed; [2]) | Plant response rating, Redroot pigweed (pigweed; [3]) | Plant response rating, Redroot pigweed (pigweed; [4]) | Redroot pigweed plant response rating (pigweed; [5]) | Redroot pigweed plant response rating (pigweed; [6]) | Redroot pigweed plant response rating (pigweed; [7]) | Redroot pigweed plant response rating (pigweed; [8])
